Read-outs that look alike come from different tables or passages of the source. Values belong to the compound of their own block, whether it stands above or below them.
How the values were obtained:
[1] = test system: lncap (prostate cancer cells); test: MTT cancer cell growth inhibition; type: cell-based; conditions: 72 hours incubation, lncap cells, read-out: GI50 lncap
From the text: (§1) MTT assay principle is yellow MTT can penetrate membrane into the cell, succinic dehydrogenase of the mitochondria in living cells can make exogenous MTT reduction of insoluble in water of blue-violet acicular formazan for crystallization and deposition in the cell, crystallization can be dissolved dimethyl sulfoxide (DMSO) solution, detected its absorbance at 490 nm/570 nm wavelength by enzyme-linked immunosorbent assay, which can reflect the number of cells.
(§2) Using DMEM+10% FBS culture medium or using 1640+10% FBS culture, respectively.
(§3) Experimental group: 190 μl cell suspension+10 μl different concentrations of drugs (the final concentration is 10^−5˜10^−10 M)
(§4) a) Cells were seeded in 96-well plates with the inoculation of 1500/well, 190 μl/hole, 37° C., 5% of CO2 incubator overnight;
(§5) b) The next day each well was added 10 μl of different drugs. The final concentration of drug was 10^−5˜10^−10 M, three parallel holes; 37° C., 5% CO2 culture incubator for 72 hours incubation;
(§6) c) Per well was added 20 μl 5 mg/ml of MTT, 37° C., 5% CO2 culture incubator for 4 hours incubation;
(§7) d) The supernatant was discarded. Each well was added 100 μl of DMSO and oscillation;
(§8) e) 570 nm readings. Calculate cell viability. GI50 calculation based on the results.

[2] = test system: N-87 (human gastric cancer cells); test: MTT cancer cell growth inhibition; type: cell-based; conditions: 72 h, N-87 cells, 72 hours incubation
From the text: as §1, §2, §3, §4, §5, §6, §7, §8

HDAC11 = target: T1, HDAC11 (Homo sapiens, UniProt Q96DB2); test: HDAC biochemical activity measurement (fluorescent substrate deacetylation); conditions: IC50 (μM) HDAC11, HDAC11 enzyme, 37°, 30 minutes
T1 sequence (Q96DB2 1-347): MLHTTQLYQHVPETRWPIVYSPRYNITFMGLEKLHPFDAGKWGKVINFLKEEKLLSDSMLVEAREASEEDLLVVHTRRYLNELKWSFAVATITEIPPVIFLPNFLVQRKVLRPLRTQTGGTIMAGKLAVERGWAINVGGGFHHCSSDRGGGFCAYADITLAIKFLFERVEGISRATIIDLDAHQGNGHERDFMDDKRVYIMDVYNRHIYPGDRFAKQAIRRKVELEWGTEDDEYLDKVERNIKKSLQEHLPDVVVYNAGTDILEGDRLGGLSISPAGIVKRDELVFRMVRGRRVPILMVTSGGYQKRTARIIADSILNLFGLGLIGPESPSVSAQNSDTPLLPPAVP
Procedure: (§9) Measurement principle: The chemical activity of the compound is determined according to the degree of deacetylation inhibition of the HDAC enzyme. This experiment measured the degree of deacetylation related to tumor proliferation and metastasis of HDAC1, HDAC2, HDAC3, HDAC8, HDAC11 five subtypes HDAC enzymes. After the substrate containing an acetylated lysine side chain and HDAC enzyme are labeled with a fluorescent label, the fluorescent substrate is de acetyl. The fluorescent labeled substrate is cleaved by the enzyme, and the fluorescent substance is released, which generates 460 nm emission light under the excitation of 360 nm light.
(§10) Specific steps: HDAC substrate was diluted with reaction buffer to 200M (reaction concentration of 20M), the HDAC enzyme was diluted to the appropriate concentration, then added different concentrations of the test compounds and acted at 37 ? 30 minutes, and then added the same volume of 2-times concentration substrate developing solution (developer), incubated at room temperature for 15 minutes. Finally, the last reading measured with a microplate plate reader, excitation light was 360 nm, the emitted light was 460 nm, data processing software was Prime 4, and the results are shown in Table 1.

HDAC2 = HDAC2 (Homo sapiens, UniProt Q92769); test: as above; conditions: HDAC2 enzyme, 37°, 30 minutes
Procedure: as §9, §10

HDAC1 = HDAC1 (Homo sapiens, UniProt Q13547); test: as above; conditions: HDAC1 enzyme, 37°, 30 minutes
Procedure: as §9, §10

HDAC3 = HDAC3 (Homo sapiens, UniProt O15379); test: as above; conditions: IC50 (μM) HDAC3, HDAC3 enzyme, 37°, 30 minutes
Procedure: as §9, §10

HDAC8 = target: T2, HDAC8 (Homo sapiens, UniProt Q9BY41); test: as above; conditions: HDAC8 enzyme, 37°, 30 minutes
T2 sequence (Q9BY41 1-377): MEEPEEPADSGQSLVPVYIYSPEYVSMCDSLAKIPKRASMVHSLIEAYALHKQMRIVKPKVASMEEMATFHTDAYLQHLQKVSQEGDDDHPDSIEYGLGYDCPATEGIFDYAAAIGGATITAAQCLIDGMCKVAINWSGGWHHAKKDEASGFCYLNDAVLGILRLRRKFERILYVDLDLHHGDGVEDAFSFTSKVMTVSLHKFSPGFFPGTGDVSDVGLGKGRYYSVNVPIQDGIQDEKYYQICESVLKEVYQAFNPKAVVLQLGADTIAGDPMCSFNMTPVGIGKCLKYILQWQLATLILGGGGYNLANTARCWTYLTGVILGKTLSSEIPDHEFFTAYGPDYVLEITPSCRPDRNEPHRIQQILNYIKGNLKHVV
Procedure: as §9, §10

[3] = test system: U937 (human leukemia cells); test: MTT cancer cell growth inhibition; type: cell-based; conditions: Homo sapiens, U-937, 72 h, 72 hours incubation
From the text: as §1, §2, §3, §4, §5, §6, §7, §8

[4] = test system: MCF-7 (human breast cancer cells); test: MTT cancer cell growth inhibition; type: cell-based; conditions: 72 hours incubation, MCF-7 cells
From the text: as §1, §2, §3, §4, §5, §6, §7, §8

[5] = test system: BGC-823 (human gastric cancer cells); test: MTT cancer cell growth inhibition; type: cell-based; conditions: 72 hours incubation, BGC-823 cells, read-out: GI50 BGC8
From the text: as §1, §2, §3, §4, §5, §6, §7, §8

[6] = test system: HT1080 (human fibrosarcoma cells); test: MTT cancer cell growth inhibition; type: cell-based; conditions: 72 hours incubation, HT1080 cells, read-out: GI50 HT10
From the text: as §1, §2, §3, §4, §5, §6, §7, §8

[7] = test system: Hela (human cervical cancer cells); test: MTT cancer cell growth inhibition; type: cell-based; conditions: 72 hours incubation, Hela cells, read-out: GI50 Hela
From the text: as §1, §2, §3, §4, §5, §6, §7, §8

[8] = test system: MOLT-4 (human acute lymphoblastic leukemia cells); test: MTT cancer cell growth inhibition; type: cell-based; conditions: 72 hours incubation
From the text: as §1, §2, §3, §4, §5, §6, §7, §8

[9] = test system: A549 (human lung cancer cells); test: MTT cancer cell growth inhibition; type: cell-based; conditions: 72 hours incubation, A549 cells, read-out: GI50 A549
From the text: as §1, §2, §3, §4, §5, §6, §7, §8

[10] = test system: DU145 (human prostate cancer cells); test: MTT cancer cell growth inhibition; type: cell-based; conditions: 72 hours incubation, DU145 cells, read-out: GI50 Du14
From the text: as §1, §2, §3, §4, §5, §6, §7, §8

[11] = test system: PANC-1 (Pac-1, human pancreatic cancer cells); test: MTT cancer cell growth inhibition; type: cell-based; conditions: Homo sapiens, PANC-1, 72 h, 72 hours incubation, PANC-1 cells, read-out: GI50 PAN
From the text: as §1, §2, §3, §4, §5, §6, §7, §8

HDAC7 = target: T3, HDAC7 (Homo sapiens, UniProt Q8WUI4); test: HDAC biochemical activity measurement (fluorescent substrate deacetylation); conditions: HDAC7 enzyme, 37°, 30 minutes
T3 sequence (Q8WUI4 1-952): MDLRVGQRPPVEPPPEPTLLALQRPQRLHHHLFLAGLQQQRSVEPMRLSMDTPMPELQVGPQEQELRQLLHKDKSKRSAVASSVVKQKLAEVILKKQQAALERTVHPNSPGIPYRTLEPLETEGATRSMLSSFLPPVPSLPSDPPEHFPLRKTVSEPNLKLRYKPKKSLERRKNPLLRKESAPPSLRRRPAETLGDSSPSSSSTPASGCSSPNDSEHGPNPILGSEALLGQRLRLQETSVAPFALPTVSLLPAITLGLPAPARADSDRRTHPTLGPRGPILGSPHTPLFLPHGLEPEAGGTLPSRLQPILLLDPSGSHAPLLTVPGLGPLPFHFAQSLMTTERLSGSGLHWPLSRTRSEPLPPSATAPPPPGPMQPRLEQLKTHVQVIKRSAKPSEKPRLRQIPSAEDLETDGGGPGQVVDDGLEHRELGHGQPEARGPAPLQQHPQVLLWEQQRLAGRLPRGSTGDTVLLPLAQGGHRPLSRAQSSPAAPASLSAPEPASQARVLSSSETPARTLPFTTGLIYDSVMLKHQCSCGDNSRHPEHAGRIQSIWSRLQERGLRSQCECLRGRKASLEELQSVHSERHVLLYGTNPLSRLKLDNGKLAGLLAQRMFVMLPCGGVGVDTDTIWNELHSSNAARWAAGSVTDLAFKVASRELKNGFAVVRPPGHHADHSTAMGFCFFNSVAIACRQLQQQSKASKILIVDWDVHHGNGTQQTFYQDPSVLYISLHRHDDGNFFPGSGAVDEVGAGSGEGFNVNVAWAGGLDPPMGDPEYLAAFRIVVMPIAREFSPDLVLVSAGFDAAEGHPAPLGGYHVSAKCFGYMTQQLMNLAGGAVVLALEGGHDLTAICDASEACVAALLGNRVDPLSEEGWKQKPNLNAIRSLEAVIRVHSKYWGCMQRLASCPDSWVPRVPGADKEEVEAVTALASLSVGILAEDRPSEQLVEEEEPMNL
Procedure: Measurement principle: The chemical activity of the compound is determined according to the degree of deacetylation inhibition of the HDAC enzyme. […] After the substrate containing an acetylated lysine side chain and HDAC enzyme are labeled with a fluorescent label, the fluorescent substrate is de acetyl. The fluorescent labeled substrate is cleaved by the enzyme, and the fluorescent substance is released, which generates 460 nm emission light under the excitation of 360 nm light.
as §10

Sequence of HDAC3 (O15379 whole entry, species assumed): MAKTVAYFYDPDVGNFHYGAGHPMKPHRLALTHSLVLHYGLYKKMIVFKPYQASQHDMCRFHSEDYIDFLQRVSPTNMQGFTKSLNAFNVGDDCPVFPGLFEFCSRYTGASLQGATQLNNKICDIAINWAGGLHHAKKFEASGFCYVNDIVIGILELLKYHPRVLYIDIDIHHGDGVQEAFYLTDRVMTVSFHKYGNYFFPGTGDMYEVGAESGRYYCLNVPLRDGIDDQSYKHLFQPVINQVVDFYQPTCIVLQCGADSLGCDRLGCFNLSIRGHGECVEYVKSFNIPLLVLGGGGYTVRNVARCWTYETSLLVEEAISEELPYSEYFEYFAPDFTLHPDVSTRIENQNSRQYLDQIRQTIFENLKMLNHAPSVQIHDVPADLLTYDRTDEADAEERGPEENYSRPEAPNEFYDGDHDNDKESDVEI
Sequence of HDAC3 (Q9Y618 395-489 partner limits assumed, species assumed): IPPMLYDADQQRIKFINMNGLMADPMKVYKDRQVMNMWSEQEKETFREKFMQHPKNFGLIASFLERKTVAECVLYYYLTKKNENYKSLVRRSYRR
Sequence of HDAC1 (Q13547 whole entry, species assumed): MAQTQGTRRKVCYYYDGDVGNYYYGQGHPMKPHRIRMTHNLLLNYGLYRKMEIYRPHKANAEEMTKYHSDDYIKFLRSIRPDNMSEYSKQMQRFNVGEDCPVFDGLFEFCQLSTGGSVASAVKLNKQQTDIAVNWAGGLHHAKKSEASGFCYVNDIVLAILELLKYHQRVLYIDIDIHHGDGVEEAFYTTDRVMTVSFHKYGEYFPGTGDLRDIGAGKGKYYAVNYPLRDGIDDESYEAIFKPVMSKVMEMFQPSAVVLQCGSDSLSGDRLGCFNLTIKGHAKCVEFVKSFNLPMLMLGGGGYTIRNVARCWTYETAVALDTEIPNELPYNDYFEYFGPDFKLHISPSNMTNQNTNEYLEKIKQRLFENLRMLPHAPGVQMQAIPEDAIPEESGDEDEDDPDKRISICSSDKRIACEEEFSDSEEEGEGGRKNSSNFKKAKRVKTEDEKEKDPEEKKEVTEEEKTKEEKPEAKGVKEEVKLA
Sequence of HDAC2 (Q92769 whole entry, species assumed): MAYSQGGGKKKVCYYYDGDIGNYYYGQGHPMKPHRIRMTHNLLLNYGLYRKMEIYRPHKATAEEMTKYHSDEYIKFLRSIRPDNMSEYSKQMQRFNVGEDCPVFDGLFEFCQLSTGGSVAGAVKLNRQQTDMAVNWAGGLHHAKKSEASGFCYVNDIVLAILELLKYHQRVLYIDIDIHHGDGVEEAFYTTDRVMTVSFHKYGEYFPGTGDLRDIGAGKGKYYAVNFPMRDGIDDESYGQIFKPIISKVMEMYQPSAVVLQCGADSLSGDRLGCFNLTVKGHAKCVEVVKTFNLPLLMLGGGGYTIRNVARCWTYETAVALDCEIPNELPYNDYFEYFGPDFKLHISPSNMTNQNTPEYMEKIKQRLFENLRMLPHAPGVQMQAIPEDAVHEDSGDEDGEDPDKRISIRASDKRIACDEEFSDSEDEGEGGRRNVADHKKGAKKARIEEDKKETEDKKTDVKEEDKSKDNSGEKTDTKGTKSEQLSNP

- GI50 ([1]; Homo sapiens, LNCaP, 72 h): 53 nM
Compound: C/C=C1\NC(=O)c2cccc(n2)CNC(=O)C[C@@H](/C=C/CCSC(=O)CCCCCCC)OC(=O)[C@@H](C)NC1=O [Compound 236]

- GI50 [2]: 28 nM
Compound: C/C=C1\NC(=O)c2nc(ccc2F)CNC(=O)C[C@@H](/C=C/CCSC(C)=O)OC(=O)[C@H](C(C)C)NC1=O [Compound 93]

- IC50 (HDAC11): 0.086 µM
- IC50 (HDAC2): 0.033 µM
- IC50 (HDAC1): 0.061 µM
- IC50 (HDAC3): 0.063 µM
- IC50 (HDAC8): 0.062 µM
- GI50 [3]: 65 nM
- GI50 ([4]; Homo sapiens, MCF7, 72 h): 73 nM
- GI50 ([5]; Homo sapiens, BGC-823, 72 h): 29 nM
- GI50 ([1]; Homo sapiens, LNCaP, 72 h): 79 nM
- GI50 ([6]; Homo sapiens, HT-1080, 72 h): 57 nM
- GI50 ([7]; Homo sapiens, HeLa, 72 h): 12 nM
- GI50 ([8]; Homo sapiens, MOLT-4, 72 h, MOLT-4 cells, read-out: GI50 Molt-): 0.032 µM
- GI50 ([9]; Homo sapiens, A549, 72 h): 83 nM
- GI50 ([10]; Homo sapiens, DU-145, 72 h): 23 nM
- GI50 [11]: 11 nM
Compound: C/C=C1\NC(=O)c2ccc(SC)c(n2)CNC(=O)C[C@@H](/C=C/CCSC(=O)CCC)OC(=O)[C@H](C(C)C)NC1=O [Compound 161]

- GI50 ([8]; Homo sapiens, MOLT-4, 72 h, drug concentration required for 50% of cell growth inhibition, read-out: GI50 (μM) Molt-): 0.005 µM
Compound: C/C=C1\NC(=O)c2cccc(n2)CNC(=O)C[C@@H](/C=C/CCSC(=O)CCCCCCC)OC(=O)[C@H](C(C)C)NC1=O [Compound 1]

- IC50 (μM) HDAC7 (HDAC7): no activity
- GI50 [4]: 43 nM
- GI50 [5]: 38 nM
- GI50 [1]: 34 nM
- GI50 [6]: 95 nM
- GI50 [7]: 67 nM
- GI50 ([8]; MOLT-4 cells, read-out: GI50 Molt-): 0.033 µM
- GI50 [9]: 58 nM
- GI50 [10]: 51 nM
Compound: C/C=C1\NC(=O)c2cc(SC)cc(n2)CNC(=O)C[C@@H](/C=C/CCSC(C)=O)OC(=O)[C@H](C(C)C)NC1=O [Compound 224]
